Converted amounts (≈) assume the structure as drawn.
What was measured:
[1] = In vitro drug release study (dialysis, PBS pH 7.4); format: physicochemical; settings: PBS pH 7.4, 37 °C, over 96 h, dialysis under sink conditions
Description: Briefly, 1 mL of dl-TPL-lip, CA IX-TPL-lip, CPP33-TPL-lip, TPL-lip, and free TPL solution (0.05 mg/mL) was placed into dialysis tubes with a molecular cut-off of MWCO 12–14 kDa and dialyzed in 10 mL of PBS (pH 7.4) at 37 °C. At predetermined time intervals, 100 μL of release medium was taken out and replaced with equal volume of fresh medium. The concentration of TPL in release medium was then determined by UPLC.

[2] = Pharmacokinetics study after pulmonary (endotracheal) administration to rats; parameters: species or system Sprague Dawley rats; settings: rat, in vivo, 0.5 mg/kg
Description: Sprague–Dawley (SD) rats were divided randomly into five groups (n = four per group). Rats were fasted for 12 h before the experiment, but allowed water ad libitum. Free TPL, TPL-lip, CPP33-TPL-lip, CA IX-TPL-lip, and dl-TPL-lip were administered directly via pulmonary delivery using a Microsprayer Aerosolizer Pulmonary Aerosol Kit for Mouse Model PAK-MSA (Penn-Century, Inc. Wyndmoor, PA19038, USA) at a dose of 0.5 mg/kg. Blood samples (0.4 mL) were obtained before dosing and at designated time points (0.083, 0.5, 1, 2, 4, 6, 8, 12 h). The samples were collected into heparinized tube from the suborbital veins and were centrifuged for 10 min at 4,000 rpm. The plasma was analyzed by Agilent 1290 Ultra High Performance Liquid Chromatograph with Agilent 6460 Triple Quadrupole Mass Spectrometer system (UHPLC-QQQ MS/MS, Santa Clara, USA) (Xue et al., [2012]; Zhuang et al., [2013]).
The TPL pharmacokinetic parameters in […] after endotracheal administration were calculated and summarized by DAS 2.1.1. Statistical analyses for anti-cancer effect study were evaluated by two-way ANOVA with Bonferroni posttests using GraphPad Prism 6 (GraphPad Software, Inc, La Jolla, USA). […]
44 Analytical method for pharmacokinetics study
45 Hydrocortisone was added (50 μL, 200 ng/mL) as an internal standard (IS) to 0.2
46 mL of plasma. The samples were mixed, and extracted with ethyl acetate (750 μL)
47 followed by vortexing for 4min and centrifuging for 10min at 8000 rpm. The upper
48 organic phase was carefully transferred and e vaporated to dryness in vacuum. The
49 residues were dissolved in 100μL methanol and centrifuged at 4000rpm for 10 min,
50 then the supernatant was collected and injected into the Agilent 1290 Ultra High
51 Performance Liquid Chromatograph with Agilent 6460 Triple Quadrupole Mass
52 Spectrometer system (UHPLC-QQQ MS/MS).
53 Chromatography conditions: Waters Acquity BEH C18 (2.1×50 mm); Mobile phase
54 0.1% formic acid in water: 0.1% formic acid in acetonitrile =80:20 v/v; Flow rate 0.35
55 mL/min; Running time 10 min.
56 Mass spectrometer conditions: Ion Source Agilent Jet Stream electro spray
57 ionization (AJS ESI); Positive mode; Gas Temperature 300 °C; Gas flow rate 8 L/min;
58 Nebulizer 40 psi; SheathGasHeater 350°C; SheathGasFlow 8 L/min; Capillary 3500
60 Firstly, optimization of mass spectrometry was initiated by automatic tuning of the
61 instrument (Figure S1). Method validation was conducted before the sample analysis.
62 The specificity of the established method was assessed by comparing the
63 chromatograms of blank plasma, blank plasma with TPL, blank plasma with IS, and
64 plasma after endotracheal administration (Figure S2). The calibration curve in rat
65 plasma was linear over the ranges 10-2500 ng/mL in rat plasma (y=0.375035x +
67 accuracy and precision both intra-day and inter-day were less than 10%. The method
68 was sufficiently accurate and consistent for proceeding for the biological analysis of
69 TPL (Table S1). Therefore, the established method was applied to the analysis of rat

[3] = tested on: orthotopic lung tumor (A549-Red-FLuc cells); experiment: Anti-cancer effect in orthotopic mice model of lung cancer (bioluminescence imaging); format: in vivo, BALB/c nu/nu mice; settings: pulmonary delivery, 0.3 mg/kg, four doses; control increased ∼6-fold; n = 5
Description: An orthotopic lung tumor-bearing mice model was established as previously reported. Briefly, the male BALB/c nu/nu mice (7–8 weeks) were anesthetized with 5% of chloral hydrate and 100 μL of A549-Red-FLuc cells (2 × 10^6 cells) solution in Matrigel (1:1). Experimental solutions were injected percutaneously into the right lateral thorax of each mouse using a 1 mL syringe with 29-gauge needle. On day seven after tumor cell inoculation, bioluminescence was measured using the IVIS Lumina XR system (Caliper, Hopking, MA) to check the successful establishment of lung cancer. D-luciferin substrate (i.p., 150 mg/kg in 0.9% saline solution) was injected 15 min before bioluminescence imaging. On day 19 after tumor cell inoculation, the mice were sacrificed and lungs were immediately resected.
On day seven following tumor cells inoculation, the orthothopic lung tumor-bearing mice (n = 30) were grouped into six treatment groups based on equivalent signal intensity of the tumor bioluminescence: Free TPL, TPL-lip, CA IX-TPL-lip, CPP33-TPL-lip, dl-TPL-lip, and control group with saline. […] Tumor growth was monitored weekly by bioluminescence imaging as before, during, and after the TPL treatment. Body weight of the mice was recorded weekly during the course of the study. […]
The TPL pharmacokinetic parameters in mice after endotracheal administration were calculated and summarized by DAS 2.1.1. […]

[4] = parameters: method as in Chen et al., [2012a]; Reno et al., [2015]; Li et al., [2016]; settings: ref Chen et al., [2012a]; Reno et al., [2015]; Li et al., [2016]; cited from earlier work
[5] = Sprague-Dawley, inhaled or intranasal, endotracheal administration, plasma TPL, n = 4

Question: Which TPL release profile [1] does the source give for CC(C)[C@]12O[C@H]1[C@@H]1O[C@]13[C@]1(O[C@H]1C[C@H]1C4=C(CC[C@@]13C)C(=O)OC4)[C@@H]2O [Free TPL, Triptolide] here?
Answer: rapid release profile

Question: And the AUC(0-inf) [2, 5]?
Answer: 225 ± 63.8 ng·h/mL

Question: And the AUC(0-t) [2, 5]?
Answer: 186 ± 36.5 ng·h/mL

Question: And the Cmax [2, 5]?
Answer: 188 ± 42.7 ng/mL

Question: And the Tmax [2, 5]?
Answer: 4.98 min

Question: What about the “Cmax of TPL in blood compared to liposomal TPL” value [2] of the same compound?
Answer: three-fold higher

Question: What about the t1/2 [2] of the same compound?
Answer: 2.98 ± 0.54 H

Question: What about the “Increase of tumors (bioluminescence) on day 31” value [3] of the same compound?
Answer: ~3 fold

Question: And the Solubility in water [4]?
Answer: 17 µg/mL (≈ 47.2 µM)
